Experiment [1] deals with surviving human skins treated with human leukocyte elastase (HLE). As to the kind of experiment: ex vivo activity on fresh sections of surviving human skins treated with HLE, morphometry of elastin fibres (Example 4). The conditions noted are these: HLE 10 μg/ml + 0.1% test compound, 2 hours at 20° C. The protocol:
(§1) The ex vivo activity of the compound of Example 2 was evaluated on surviving human skins treated with human leukocyte elastase (HLE).
(§2) The test is performed in the following manner:
Fresh sections of human skins derived from 2 different donors are treated for 2 hours at 20° C. with 20 μl of buffer solution (pH 7.4) containing optionally 10 μg/ml of HLE and optionally 0.1% of the test compound, optionally previously dissolved in ethanol.
The elastin fibres are stained blue with (+) catechol and quantified morphometrically by computer-assisted image analysis. The percentage of mean dermal surface occupied by the elastin fibres is thus evaluated

Experiment [2] deals with surviving human skins irradiated by UVA. As to the kind of experiment: activity on surviving human skins irradiated by UVA (8 J/cm2), morphometry of elastin fibres and collagen (Example 6). To be noted: UVA 8 J/cm2 + 5 μl compound at 0.2% in ethanol every two days, 7 days at 37° C. The protocol: The activity of the compound of Example 2 was evaluated on irradiated surviving human skins irradiated by UVA (8 J/cm2).
as §2
Fragments of normal human skin derived from four different donors are deposited in inserts placed in culture wells. Culture medium supplemented with antibiotics is added to the bottom of the wells. Passage by slow diffusion occurs between the two compartments through the intermediary of a porous membrane (pore size: 12 μm).
(§3) The culture medium is renewed every three days.
Every two days 5 μl of the test compound previously dissolved at 0.2% in ethanol are added to the skin fragments.
The skins are maintained in survival for 7 days at 37° C.
The skins are irradiated once only at 8 J/cm2 (Vilbert-Lourmat RMX-3W lamp).
(§4) The elastin fibres are stained blue with (+) catechol and quantified morphometrically by computer-assisted image analysis. The mean percentage dermal surface area occupied by the elastin fibres was thus evaluated.

For experiment [3], the system named is surviving human skins treated with human leukocyte elastase (HLE). As to the kind of experiment: ex vivo activity on human skin fragments kept in survival 10 days with HLE, morphometry of elastin fibres (Example 5). To be noted: three donors, mean; HLE 0.5 μg/ml + 5 μl compound at 0.2% in ethanol every two days, 10 days at 37° C.; HLE alone 5.1%, untreated 7.4%. On the procedure: as §1
(§5) The test was performed in the following manner:
Fragments of normal human skin derived from three different donors are deposited in inserts placed in culture wells. Culture medium supplemented with antibiotics is added to the bottom of the wells. Passage by slow diffusion occurs between the two compartments through the intermediary of a porous membrane (pore size: 12 μm).
as §3
Optionally 0.5 μg of HLE per ml of culture medium is added to the skin fragments.
5 μl of test compound previously dissolved at 0.2% by weight in ethanol are also added every two days.
The skins are maintained in survival for 10 days at 37° C.,
as §4

Experiment [4] deals with T1, human leukocyte elastase (HLE) (Homo sapiens, UniProt P08246).
T1 sequence (P08246 30-267): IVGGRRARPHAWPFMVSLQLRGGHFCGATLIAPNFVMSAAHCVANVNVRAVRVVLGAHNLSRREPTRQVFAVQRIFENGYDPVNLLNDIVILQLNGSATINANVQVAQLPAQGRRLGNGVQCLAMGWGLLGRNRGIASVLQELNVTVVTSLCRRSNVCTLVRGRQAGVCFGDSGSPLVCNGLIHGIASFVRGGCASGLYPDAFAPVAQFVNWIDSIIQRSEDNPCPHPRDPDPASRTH
In words: anti-elastase activity in vitro against human leukocyte elastase (HLE), substrate Me-OSAAPV-p-NA, spectrophotometry. Type of experiment: biochemical. On the procedure: The anti-elastase activity of compounds according to the invention was determined in vitro against human leukocyte elastase (HLE)
as §5
A substrate Me-OSAAPV-p-NA (methyl-O-succinate alanine alanine proline valine-p-nitroanilide) to which is added the HLE (40 milliunits per ml) and 0.1% of the test compound is incubated at 37° C. for 60 minutes.
The % of inhibition of the elastase activity tested is then determined by spectrophotometry.
In the same manner the % of inhibition of the control elastase activity was determined for the compound A at different concentrations

For the compound `CC(=O)N(c1cccc(C(F)(F)F)c1)C(C(=O)NCC(=O)O)C(C)C` (stereo not shown) [Compound A, {2-[acetyl-(3-trifluoromethyl-phenyl)-amino]-3-methyl-butyrylamino}acetic acid], the “% surface occupied by elastin fibres” value in experiment [1] (Skin 1, HLE alone 4.85%, untreated 12.7%) is given as 13.95%; in experiment [1] (Skin 2, HLE alone 6.85%, untreated 15.25%) it was 11.85%; in experiment [3], 7.1%. The “Morphometric analysis of elastin fibres (superficial dermis)” value in experiment [2] (UVA alone 3.9%, untreated 6.75%) is 6.8%. Moreover, the “Morphometric analysis of collagen (superficial dermis)” value in experiment [2] (UVA alone 81%, untreated 87%) stood at 92%. The “inhibition of the elastase activity (in words)” value in experiment [4] (even at low concentration) was “strong inhibition”.
In the case of `CCOC(=O)CNC(=O)C(C(C)C)N(Cc1ccccc1)C(=O)CP(=O)(OCC)OCC` (stereo not shown) [Compound B, (2-{benzyl-[(diethoxy-phosphoryl)-acetyl]-amino}-3-methyl-butyrylamino) ethyl acetate], the “% inhibition of elastase activity tested” value in experiment [4] (compound concentration 0.1%, HLE 40 milliunits per ml, 37° C., 60 minutes) was 17%.

Source of the values: US7125559B2, “Cosmetic or dermatological composition comprising a combination of an elastase inhibitor of the N-acylaminoamide family and at least one myorelaxing agent” (L'Oreal, priority 2001, dated 2006).
